Experimental data as given in ChEMBL document CHEMBL2046294, “Lipo-γ-AApeptides as a new class of potent and broad-spectrum antimicrobial agents” (J Med Chem, 2012).
In brackets after ≈: the same amount, converted by molar mass. Activity calls are given as the source filed them. The rule behind the calls is not given here.

Tests used:
Bacillus subtilis [1] = assay: Antibacterial activity against Bacillus subtilis BR151 after 24 hrs by broth micro-dilution method; type: functional; conditions: BR151, 24 h
Enterococcus faecalis = assay: Antibacterial activity against vancomycin-resistant Enterococcus faecalis ATCC 700802 after 24 hrs by broth micro-dilution method; type: functional; conditions: ATCC 700802, 24 h
Bacillus subtilis [2] = assay: Antibacterial activity against Bacillus subtilis BR151 assessed as loss membrane potential at 10 ug/ml; type: functional, organism-based
N2a [3] = assay: Toxicity against mouse N2A cells expressing amyloid precursor protein up to 50 ug/ml after 36 hrs by MTT assay; type: cell-based
[4] = Selectivity for Escherichia coli JM109 over mouse N2A cells expressing amyloid precursor protein
Escherichia coli [5] = assay: Antibacterial activity against Escherichia coli JM109 assessed as membrane disruption at 10 ug/ml after 2 hrs by DAPI staining-based fluorescence microscopic analysis; type: functional, organism-based
Bacillus subtilis [6] = assay: Antibacterial activity against Bacillus subtilis BR151 assessed as membrane disruption at 10 ug/ml after 2 hrs by DAPI staining-based fluorescence microscopic analysis; type: functional, organism-based
Bacillus subtilis [7] = assay: Antibacterial activity against Bacillus subtilis BR151 assessed as membrane disruption at 10 ug/ml after 2 hrs by propidium iodide staining-based fluorescence microscopic analysis; type: functional, organism-based
Pseudomonas aeruginosa = assay: Antibacterial activity against multidrug-resistant Pseudomonas aeruginosa ATCC 27853 after 24 hrs by broth micro-dilution method; type: functional; conditions: ATCC 27853, 24 h
[8] = test system: Staphylococcus epidermidis; assay: Antibacterial activity against multidrug-resistant Staphylococcus epidermidis RP62A after 24 hrs by broth micro-dilution method; type: functional
Staphylococcus aureus [9] = assay: Antibacterial activity against methicillin-resistant Staphylococcus aureus ATCC 33592 after 24 hrs by broth micro-dilution method; type: functional; conditions: ATCC 33592, 24 h
Escherichia coli [10] = assay: Antibacterial activity against Escherichia coli JM109 assessed as membrane disruption at 10 ug/ml after 2 hrs by propidium iodide staining-based fluorescence microscopic analysis; type: functional, organism-based
[11] = Selectivity for Klebsiella pneumoniae ATCC 13383 over mouse N2A cells expressing amyloid precursor protein
Staphylococcus aureus [12] = assay: Antibacterial activity against methicillin-resistant Staphylococcus aureus ATCC 33592 assessed as lipid membrane depolarization after 10 mins by DiSC3-5 staining-based fluorescence analysis; type: functional, organism-based
N2a [13] = assay: Toxicity against mouse N2A cells expressing amyloid precursor protein up to 100 ug/ml after 36 hrs by MTT assay; type: cell-based
Candida albicans = assay: Antifungal activity against Candida albicans ATCC 10231 after 48 hrs by broth micro-dilution method; type: functional; conditions: ATCC 10231, 48 h
[14] = Selectivity ratio of HC50 for human RBC to MIC for methicillin-resistant Staphylococcus aureus ATCC 33592; type: functional
[15] = Toxicity in human RBC assessed as hemolysis after 1 hr; type: cell-based, Erythrocyte; conditions: for HC10: erythrocyte, 1 h; for HC50 at 1 h: red blood cells
[16] = Selectivity for Bacillus subtilis BR151 over mouse N2A cells expressing amyloid precursor protein
Escherichia coli [17] = assay: Antibacterial activity against Escherichia coli JM109 after 24 hrs by broth micro-dilution method; type: functional; conditions: JM109, 24 h
Escherichia coli [18] = assay: Antibacterial activity against Escherichia coli JM109 assessed as loss membrane potential at 10 ug/ml; type: functional, organism-based
Staphylococcus aureus [19] = assay: Antibacterial activity against methicillin-resistant Staphylococcus aureus ATCC 33592 grown on half-MIC concentration for 17 passages measured after 17 days by broth-microdilution method; type: functional, organism-based
Klebsiella pneumoniae = assay: Antibacterial activity against Klebsiella pneumoniae ATCC 13383 after 24 hrs by broth micro-dilution method; type: functional; conditions: ATCC 13383, 24 h

Row | SMILES | MIC (Bacillus subtilis [1]) [µg/mL] | MIC (Enterococcus faecalis) [µg/mL] | MIC (Pseudomonas aeruginosa) [µg/mL] | MIC [8] [µg/mL] | MIC (Staphylococcus aureus [9]) [µg/mL] | Activity (Staphylococcus aureus [12]) | MIC (Candida albicans) [µg/mL] | Ratio [14] | HC10 [15] [µg/mL] | HC50 at 1 h [15] [µg/mL] | MIC (Escherichia coli [17]) [µg/mL] | MIC (Klebsiella pneumoniae) [µg/mL] | further results
1 | CCCCCCCCCCCCCCCC(=O)N[C@@H](C)CN(CC(=O)N[C@@H](C)CN(CC(=O)N[C@@H](CC(C)C)CN(CC(=O)N[C@@H](CC(C)C)CN(CC(=O)N[C@@H](CC(C)C)CN(CC(N)=O)C(=O)CCCN)C(=O)CCCN)C(=O)CCCN)C(C)=O)C(C)=O | 2.5 (≈ 1.94 µM) | 5 (≈ 3.87 µM) | 5 (≈ 3.87 µM) | 4 (≈ 3.1 µM) | 4 (≈ 3.1 µM) | Active | 5 (≈ 3.87 µM) | > 125 | 60 | > 500 | 2.5 (≈ 1.94 µM) | 5 (≈ 3.87 µM) | Activity (Bacillus subtilis [2]): Active; Activity (N2a [3]): Non-toxic; Ratio [4]: 10; Activity (Escherichia coli [5]): Active; Activity (Bacillus subtilis [6]): Active; Activity (Bacillus subtilis [7]): Active; Activity (Escherichia coli [10]): Active; Ratio [11]: 10; Activity (N2a [13]): 50%; Ratio [16]: 10; Activity (Escherichia coli [18]): Active; Activity (Staphylococcus aureus [19]): Active
2 | CCCCCCCCCCCCCCCC(=O)N[C@@H](C)CN(CC(=O)N[C@@H](C)CN(CC(=O)N[C@@H](Cc1ccccc1)CN(CC(=O)N[C@@H](Cc1ccccc1)CN(CC(=O)N[C@@H](Cc1ccccc1)CN(CC(N)=O)C(=O)CC(=O)O)C(=O)CC(=O)O)C(=O)CC(=O)O)C(C)=O)C(C)=O | > 100 | > 100 | > 100 | > 100 | > 100 |  | > 100 |  | 200 | > 500 | > 100 | > 100 | 
3 | CCCCCCCCCCCC(=O)N[C@@H](CCCCN)CN(CC(N)=O)C(=O)CCCN | > 50 | > 50 | > 50 | > 50 | > 50 |  | > 50 |  | 400 | > 500 | > 50 | > 50 | 
4 | CC(=O)N(CC(=O)N[C@@H](C)CN(CC(=O)N[C@@H](CC(C)C)CN(CC(=O)N[C@@H](CC(C)C)CN(CC(=O)N[C@@H](CC(C)C)CN(CC(N)=O)C(=O)CCCN)C(=O)CCCN)C(=O)CCCN)C(C)=O)C[C@H](C)N | > 100 | > 100 | > 100 | > 100 | > 100 |  | > 100 |  | 120 | > 500 | > 100 | > 100 | 
5 | CCCCCCCCCCCCCCCC(=O)N[C@@H](CCCCN)CN(CC(N)=O)C(=O)CCCN | 1.5 (≈ 2.93 µM) | 2.5 (≈ 4.88 µM) | 10 (≈ 19.5 µM) | 2 (≈ 3.91 µM) | 2.5 (≈ 4.88 µM) | Active | 2 (≈ 3.91 µM) | 16 | 25 | 40 | 2.5 (≈ 4.88 µM) | 35 (≈ 68.4 µM) | 
6 | CCCCCCCC/C=C\CCCCCCCC(=O)N[C@@H](CCCCN)C(=O)N[C@@H](CCCCN)CN(CC(N)=O)C(=O)CCCN | 2 (≈ 3 µM) | 2.5 (≈ 3.75 µM) | 15 (≈ 22.5 µM) | 2 (≈ 3 µM) | 5 (≈ 7.51 µM) | Active | 5 (≈ 7.51 µM) | > 100 | 80 | > 500 | 10 (≈ 15 µM) | 40 (≈ 60.1 µM) | 
7 | CCCCCCCCCCCCCCCC(=O)N[C@@H](CCCCN)CN(CC(=O)N[C@@H](CCCCN)CN(CC(N)=O)C(=O)CCCN)C(=O)CCCN | 1.5 (≈ 1.95 µM) | 8 (≈ 10.4 µM) | 20 (≈ 26 µM) | 2.5 (≈ 3.25 µM) | 5 (≈ 6.51 µM) | Active | 2 (≈ 2.6 µM) | 60 | 40 | 300 | 30 (≈ 39.1 µM) | 20 (≈ 26 µM) | 
